Reference: patent US12686697B2, “Advantageous morphic form of AT-527 hemi-sulfate salt” (Atea Pharmaceuticals, Inc., priority 2021, dated 2026)
Entries after “also recorded” stand apart in the source; their conditions may differ. Where a name gives a salt, the structure may show the parent alone.

Key:
[1] = Stability of 5 kg lot of Form III at 25° C.±2° C., 60% RH±5% RH; format: physicochemical; settings: stored at about 25° C. and about 60% RH, three months
Procedure: Example 6. Stability of 5 kg Lot of Form III at 25° C.±2° C., 60% RH±5% RH
These properties are advantageous for use in clinical trials or clinical use of the compound.

[2] = Stability of 0.1 kg lot of Form III under ambient conditions (15° C.-25° C., ambient RH); format: physicochemical; settings: 12 months / one year
Procedure: Example 8. Stability of 0.1 kg Lot of Form III
Additional stability studies were performed for smaller lots of Compound A Form III. These studies were performed in stability chambers set to 25° C. and 60% RH, 40° C. and 75% RH for up to 8 weeks. In other embodiments the studies can be performed for up to 4 weeks, for up to 2 weeks and for one week. The stability studies were also performed under ambient conditions, 15-25° C. with no control over the humidity.

[3] = Stability of 5 kg lot of Form III at 40° C.±2° C., 75% RH±5% RH; format: physicochemical; settings: 40° C. and 75% RH, three months
Procedure: Example 7. Stability of 5 kg Lot of Form III at 40° C.±2° C., 75% RH±5% RH
Further studies on the stability of Compound A Form III were conducted at elevated temperature and humidity. These conditions are less desirable for the storage of active pharmaceutical ingredients and may lead to accelerated degradation.

[4] = clinical trials; cited from earlier work
[5] = in vivo; cited from earlier work
SARS-CoV-2 = settings: cited from earlier work
HCV = settings: non-cirrhotic and cirrhotic HCV-infected patients, single and multiple doses; cited from earlier work

Row | SMILES | Absorption of water from the atmosphere upon storage [1] | Degradation measured by HPLC-UV [1] | Decrease in purity [2] | Degradation (decrease in purity, generation of impurities) [3] | Drug related serious adverse events [4] | Tissue concentration [5] | Potency against SARS-CoV-2 (SARS-CoV-2) | Antiviral reduction in HCV-infected cohorts (HCV)
1 | CNc1nc(N)nc2c1ncn2[C@@H]1O[C@H](CO[P@@](=O)(N[C@@H](C)C(=O)OC(C)C)Oc2ccccc2)[C@@H](O)[C@@]1(C)F [Compound A Form III, hemi-sulfate salt of isopropyl ((S)-(((2R,3R,4R,5R)-5-(2-amino-6-(methylamino)-9H-purin-9-yl)-4-fluoro-3-hydroxy-4-methyltetrahydrofuran-2-yl)methoxy)(phenoxy)phosphoryl)-L-alaninate] | does not appreciably absorb water | no measurable degradation | little or no decrease; also recorded: no measurable decrease in purity | no measurable decrease in purity or generation of impurities; also recorded: no measurable degradation | – | – | – | –
2 | CNc1nc(N)nc2c1ncn2[C@@H]1O[C@H](CO[P@@](=O)(N[C@@H](C)C(=O)OC(C)C)Oc2ccccc2)[C@@H](O)[C@@]1(C)F [Compound A, hemi-sulfate salt of isopropyl ((S)-(((2R,3R,4R,5R)-5-(2-amino-6-(methylamino)-9H-purin-9-yl)-4-fluoro-3-hydroxy-4-methyltetrahydrofuran-2-yl)methoxy)(phenoxy)phosphoryl)-L-alaninate] | – | – | – | – | no drug related serious adverse events observed | disproportionately concentrate in the lung and the liver | potent | significant antiviral reduction
